Patent publication EP4745137A1 (Gluetacs Therapeutics (Shanghai) Co., Ltd., priority 2023, dated 2025)

How the values were obtained:
IKZF2 = biological target: T1, IKZF2 (Homo sapiens, UniProt Q96SW2+Q9UKS7); assay: Western-blot assay of substrate protein degradation in hPBMCs, IKZF2; format: cell-based; conditions: 24 hours of compound treatment, compounds tested at 50 nM and 500 nM (concentration of the table not stated)
T1 construct: endogenous in cells; host or cells: hPBMCs (Milecell Biotechnologies)

GSPT1 = biological target: T2, GSPT1 (Homo sapiens, UniProt P15170+Q96SW2); assay: Western-blot assay of substrate protein degradation in hPBMCs, GSPT1; format: cell-based; conditions: 24 hours of compound treatment, compounds tested at 50 nM and 500 nM (concentration of the table not stated)
T2 construct: endogenous in cells; host or cells: hPBMCs (Milecell Biotechnologies)

NCI-H1975 = assay: Tumor cell proliferation inhibition (CellTiter-Meiluncell Luminescent Cell Viability Assay), NCI-H1975; conditions: Homo sapiens, NCI-H1975, 96 h, read-out: inhibitory activity (IC50, nM) against tumor cells proliferation, H1975
[1] = test system: Human acute T lymphocytic leukemia cells (Molt-4); assay: Tumor cell proliferation inhibition (CellTiter-Meiluncell Luminescent Cell Viability Assay), Molt-4; conditions: MOLT-4, 96 h, read-out: inhibitory activity (IC50, nM) against tumor cells proliferation, Molt 4
IKZF1 = biological target: T3, IKZF1 (Homo sapiens, UniProt Q13422+Q96SW2); assay: Western-blot assay of substrate protein degradation in hPBMCs, IKZF1; format: cell-based; conditions: 24 hours of compound treatment, compounds tested at 50 nM and 500 nM (concentration of the table not stated)
T3 construct: endogenous in cells; host or cells: hPBMCs (Milecell Biotechnologies)

IKZF3 = biological target: T4, IKZF3 (Homo sapiens, UniProt Q96SW2+Q9UKT9); assay: Western-blot assay of substrate protein degradation in hPBMCs, IKZF3; format: cell-based; conditions: 24 hours of compound treatment, compounds tested at 50 nM and 500 nM (concentration of the table not stated)
T4 construct: endogenous in cells; host or cells: hPBMCs (Milecell Biotechnologies)

TMD8 = assay: Tumor cell proliferation inhibition (CellTiter-Meiluncell Luminescent Cell Viability Assay), TMD8; conditions: Homo sapiens, TMD8, 96 h, read-out: inhibitory activity (IC50, nM) against tumor cells proliferation, TMD8
WEE1 = biological target: T5, WEE1 (Homo sapiens, UniProt P30291+Q96SW2); assay: Western-blot assay of substrate protein degradation in hPBMCs, WEE1; format: cell-based; conditions: 24 hours of compound treatment, compounds tested at 50 nM and 500 nM (concentration of the table not stated)
T5 construct: endogenous in cells; host or cells: hPBMCs (Milecell Biotechnologies)

[2] = test system: Human breast cancer cells (MDA-MB-231); assay: Tumor cell proliferation inhibition (CellTiter-Meiluncell Luminescent Cell Viability Assay), MDA-MB-231; conditions: MDA-MB-231, 96 h, read-out: inhibitory activity (IC50, nM) against tumor cells proliferation, MDA-MB-231
Description: The tumor cells used herein were cultured in a cell culture medium listed in table 2 at 37°C in an incubator with 5% CO2. Prior to experimentation, all cell lines used were correctly identified by STR profiling, and tested negative for mycoplasma contamination using a mycoplasma detection kit through routine screenings.
On the following day, the test compounds of the present disclosure were subjected to serial dilution. […] Subsequently, 0.5 µL of the test compound dilution was transferred into the 96-well plate containing the cells, with each well containing 100 µL of cell culture medium. […] Into the 96-well plate, the diluted test compounds and corresponding detection reagents were added, resulting in final test compound concentrations of 500 nM and 10 nM, respectively. The experimental procedure is described below using the diluted 2 µM test compound as an example.
After the cells were treated with the compounds of the present disclosure for a specified period (the treatment durations were shown in Table 3), the cell viability assay reagent was added to the culture medium according to the kit's instructions to determine cell viability. […] All controls were treated using the same procedure as the compounds of the present disclosure. The growth inhibition curves for the compounds of the present disclosure were plotted using Prism GraphPad software, and the IC50 values were calculated therefrom.

CK1α = biological target: T6, CK1α (Homo sapiens, UniProt P48729+Q96SW2); assay: Western-blot assay of substrate protein degradation in hPBMCs, CK1α; format: cell-based; conditions: 24 hours of compound treatment, compounds tested at 50 nM and 500 nM (concentration of the table not stated)
T6 construct: endogenous in cells; host or cells: hPBMCs (Milecell Biotechnologies)

[3] = biological target: T7, human Cereblon WT GST-tagged protein (Homo sapiens, UniProt Q96SW2); assay: CRBN-binding affinity by HTRF (CEREBLON BINDING kit); conditions: HTRF inhibitory activity, CEREBLON BINDING kit; read-out: HTRF IC50
T7 construct: purchased CISBIO 64BDCRBNPEH
T7 sequence (Q96SW2 whole entry): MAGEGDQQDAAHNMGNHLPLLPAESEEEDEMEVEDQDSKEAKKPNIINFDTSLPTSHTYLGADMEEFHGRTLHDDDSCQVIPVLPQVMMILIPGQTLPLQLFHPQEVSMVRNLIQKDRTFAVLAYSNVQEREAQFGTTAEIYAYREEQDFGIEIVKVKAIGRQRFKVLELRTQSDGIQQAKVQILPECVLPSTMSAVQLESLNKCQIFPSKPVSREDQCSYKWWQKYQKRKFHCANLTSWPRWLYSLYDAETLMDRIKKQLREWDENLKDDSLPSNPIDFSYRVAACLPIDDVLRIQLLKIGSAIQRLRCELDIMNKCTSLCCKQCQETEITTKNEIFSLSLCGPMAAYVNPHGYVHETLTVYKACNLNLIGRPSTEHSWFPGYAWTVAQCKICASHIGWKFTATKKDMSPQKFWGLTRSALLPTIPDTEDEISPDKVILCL

T3 sequence (Q13422 whole entry): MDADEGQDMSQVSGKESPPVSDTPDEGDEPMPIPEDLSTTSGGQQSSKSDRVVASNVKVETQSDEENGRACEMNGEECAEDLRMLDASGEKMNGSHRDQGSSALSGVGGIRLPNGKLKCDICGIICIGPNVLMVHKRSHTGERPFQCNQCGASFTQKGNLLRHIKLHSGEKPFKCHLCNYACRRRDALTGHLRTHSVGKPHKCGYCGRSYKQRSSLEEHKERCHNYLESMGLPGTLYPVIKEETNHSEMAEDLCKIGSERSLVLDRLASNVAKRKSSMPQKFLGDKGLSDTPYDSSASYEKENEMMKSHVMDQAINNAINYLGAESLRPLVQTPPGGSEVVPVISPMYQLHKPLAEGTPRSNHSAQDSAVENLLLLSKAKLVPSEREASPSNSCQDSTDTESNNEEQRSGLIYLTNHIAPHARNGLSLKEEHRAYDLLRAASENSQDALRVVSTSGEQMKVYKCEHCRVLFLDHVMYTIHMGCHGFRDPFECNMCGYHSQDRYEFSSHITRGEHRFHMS
T3 sequence (Q96SW2 whole entry): as the sequence (Q96SW2 whole entry) above
T3 sequence (Q16531 whole entry partner): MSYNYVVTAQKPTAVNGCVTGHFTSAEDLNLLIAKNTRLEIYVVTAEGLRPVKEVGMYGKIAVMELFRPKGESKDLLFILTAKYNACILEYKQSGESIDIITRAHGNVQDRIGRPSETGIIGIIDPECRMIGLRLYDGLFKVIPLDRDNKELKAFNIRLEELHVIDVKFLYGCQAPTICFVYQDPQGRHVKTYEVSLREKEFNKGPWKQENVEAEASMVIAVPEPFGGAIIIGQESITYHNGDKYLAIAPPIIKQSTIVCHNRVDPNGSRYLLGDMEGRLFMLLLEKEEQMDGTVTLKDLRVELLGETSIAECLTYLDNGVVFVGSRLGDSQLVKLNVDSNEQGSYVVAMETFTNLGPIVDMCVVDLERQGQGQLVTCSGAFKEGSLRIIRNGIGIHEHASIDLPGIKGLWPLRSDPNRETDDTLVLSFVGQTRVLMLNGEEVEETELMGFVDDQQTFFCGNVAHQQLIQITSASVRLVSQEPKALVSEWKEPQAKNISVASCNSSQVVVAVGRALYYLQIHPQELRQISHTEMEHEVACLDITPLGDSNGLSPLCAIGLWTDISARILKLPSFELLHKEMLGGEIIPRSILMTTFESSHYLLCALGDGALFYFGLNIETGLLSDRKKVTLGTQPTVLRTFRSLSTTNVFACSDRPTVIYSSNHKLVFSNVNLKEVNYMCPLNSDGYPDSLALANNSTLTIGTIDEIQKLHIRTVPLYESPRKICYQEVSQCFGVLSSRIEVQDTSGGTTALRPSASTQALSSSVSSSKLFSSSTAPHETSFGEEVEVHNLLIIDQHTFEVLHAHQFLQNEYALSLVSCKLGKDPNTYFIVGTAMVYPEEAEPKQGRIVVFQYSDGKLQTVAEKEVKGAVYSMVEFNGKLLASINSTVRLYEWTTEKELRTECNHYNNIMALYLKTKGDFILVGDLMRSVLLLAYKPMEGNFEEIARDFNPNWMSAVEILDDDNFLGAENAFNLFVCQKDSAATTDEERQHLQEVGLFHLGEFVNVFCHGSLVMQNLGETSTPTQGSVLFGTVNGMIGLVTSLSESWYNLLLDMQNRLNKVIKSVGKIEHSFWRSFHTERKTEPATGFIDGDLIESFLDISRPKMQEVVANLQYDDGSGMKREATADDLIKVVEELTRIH
T2 sequence (P15170 whole entry): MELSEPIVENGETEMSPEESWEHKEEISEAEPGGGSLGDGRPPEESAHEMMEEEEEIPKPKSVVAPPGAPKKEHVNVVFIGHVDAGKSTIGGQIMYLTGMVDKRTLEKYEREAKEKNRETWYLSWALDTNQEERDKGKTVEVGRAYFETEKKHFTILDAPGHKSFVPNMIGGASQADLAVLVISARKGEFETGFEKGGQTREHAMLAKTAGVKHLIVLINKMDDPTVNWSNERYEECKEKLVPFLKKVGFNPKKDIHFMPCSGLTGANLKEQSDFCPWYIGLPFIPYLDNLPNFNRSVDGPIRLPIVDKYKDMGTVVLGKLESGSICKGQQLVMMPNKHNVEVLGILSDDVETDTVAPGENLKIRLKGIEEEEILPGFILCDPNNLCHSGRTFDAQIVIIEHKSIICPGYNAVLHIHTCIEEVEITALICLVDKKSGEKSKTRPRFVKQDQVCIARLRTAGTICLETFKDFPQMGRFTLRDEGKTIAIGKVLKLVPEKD
T2 sequence (Q96SW2 whole entry): as the sequence (Q96SW2 whole entry) above
T2 sequence (Q16531 whole entry partner): as the sequence (Q16531 whole entry partner) above
T6 sequence (P48729 whole entry): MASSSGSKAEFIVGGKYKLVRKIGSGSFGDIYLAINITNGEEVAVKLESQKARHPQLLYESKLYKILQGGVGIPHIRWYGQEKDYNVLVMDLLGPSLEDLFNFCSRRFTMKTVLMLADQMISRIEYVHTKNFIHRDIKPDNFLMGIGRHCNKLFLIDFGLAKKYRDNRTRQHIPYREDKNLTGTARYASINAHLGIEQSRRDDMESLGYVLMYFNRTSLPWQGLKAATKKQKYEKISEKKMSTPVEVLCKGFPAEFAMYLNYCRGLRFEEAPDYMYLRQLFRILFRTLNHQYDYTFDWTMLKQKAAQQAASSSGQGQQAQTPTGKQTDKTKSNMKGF
T6 sequence (Q96SW2 whole entry): as the sequence (Q96SW2 whole entry) above
T6 sequence (Q16531 whole entry partner): as the sequence (Q16531 whole entry partner) above
T1 sequence (Q9UKS7 whole entry): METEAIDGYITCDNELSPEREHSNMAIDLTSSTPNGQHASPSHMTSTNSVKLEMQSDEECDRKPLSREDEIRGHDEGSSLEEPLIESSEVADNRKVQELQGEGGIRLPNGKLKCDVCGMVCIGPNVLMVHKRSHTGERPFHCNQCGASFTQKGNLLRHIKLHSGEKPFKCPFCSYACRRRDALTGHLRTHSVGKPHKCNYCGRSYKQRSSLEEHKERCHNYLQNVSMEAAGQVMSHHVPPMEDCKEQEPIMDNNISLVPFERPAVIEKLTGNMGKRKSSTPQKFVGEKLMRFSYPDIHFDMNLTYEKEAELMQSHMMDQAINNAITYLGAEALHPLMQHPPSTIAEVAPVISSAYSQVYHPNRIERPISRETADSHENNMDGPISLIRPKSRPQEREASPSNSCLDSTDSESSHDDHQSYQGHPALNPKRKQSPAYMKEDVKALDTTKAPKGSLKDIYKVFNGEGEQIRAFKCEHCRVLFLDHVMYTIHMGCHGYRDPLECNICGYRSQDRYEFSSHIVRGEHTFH
T1 sequence (Q96SW2 whole entry): as the sequence (Q96SW2 whole entry) above
T1 sequence (Q16531 whole entry partner): as the sequence (Q16531 whole entry partner) above
T5 sequence (P30291 whole entry): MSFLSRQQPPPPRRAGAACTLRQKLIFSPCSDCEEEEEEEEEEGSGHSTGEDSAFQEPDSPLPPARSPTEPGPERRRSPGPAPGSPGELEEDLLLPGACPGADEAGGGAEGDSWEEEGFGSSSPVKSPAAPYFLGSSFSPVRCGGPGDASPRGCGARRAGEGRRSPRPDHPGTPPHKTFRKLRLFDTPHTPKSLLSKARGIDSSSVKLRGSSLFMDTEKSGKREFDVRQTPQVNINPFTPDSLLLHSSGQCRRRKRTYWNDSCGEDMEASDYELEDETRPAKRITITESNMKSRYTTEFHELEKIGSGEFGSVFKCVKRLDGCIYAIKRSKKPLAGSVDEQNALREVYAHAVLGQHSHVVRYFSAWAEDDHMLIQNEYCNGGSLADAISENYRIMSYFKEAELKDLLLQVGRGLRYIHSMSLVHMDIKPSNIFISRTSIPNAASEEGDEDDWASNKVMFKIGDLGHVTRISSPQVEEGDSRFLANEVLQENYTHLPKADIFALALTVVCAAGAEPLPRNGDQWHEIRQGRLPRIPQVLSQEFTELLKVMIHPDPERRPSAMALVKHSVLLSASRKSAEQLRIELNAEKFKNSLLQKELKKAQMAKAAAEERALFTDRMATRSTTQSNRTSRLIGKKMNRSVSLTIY
T5 sequence (Q96SW2 whole entry): as the sequence (Q96SW2 whole entry) above
T5 sequence (Q16531 whole entry partner): as the sequence (Q16531 whole entry partner) above

Structure (SMILES)	IC50 (NCI-H1975) [nM]	IC50 [1] [nM]	IC50 (TMD8) [nM]	IC50 [2] [nM]	IC50 [3] [nM]	IKZF2 substrate protein remaining % (IKZF2)	GSPT1 substrate protein remaining % (GSPT1)	IKZF 1 substrate protein remaining % (IKZF1)	IKZF3 substrate protein remaining % (IKZF3)	Weel substrate protein remaining % (WEE1)	CK1a substrate protein remaining % (CK1α)
Cc1ccc(C2=CCN(Cc3ccc4c(c3)CN(C3CCC(=O)NC3=O)C4=O)CC2)s1 (stereo not shown) [GT-04572, 3-(5-((4-(5-methylthiophen-2-yl)-3,6-dihydropyridin-1(2H)-yl)methyl)-1-oxoisoindolin-2-yl)piperidine-2,6-dione]	10 to 50	1 to 5	10 to 50	10 to 50	500 to 1000	A (0% ≤ substrate protein remaining % ≤ 80%)	A (0% ≤ substrate protein remaining % ≤ 80%)	A (0% ≤ substrate protein remaining % ≤ 80%)	A (0% ≤ substrate protein remaining % ≤ 80%)	A (0% ≤ substrate protein remaining % ≤ 80%)	A (0% ≤ substrate protein remaining % ≤ 80%)
O=C1CCC(N2Cc3cc(CN4CC=C(c5ccsc5)CC4)ccc3C2=O)C(=O)N1 (stereo not shown) [GT-04585, 3-(1-oxo-5-((4-(thiophen-3-yl)-3,6-dihydropyridin-1(2H)-yl)methyl)isoindolin-2-yl)piperidine-2,6-dione]	10 to 50	1 to 5	10 to 50	5 to 10	< 500	A (0% ≤ substrate protein remaining % ≤ 80%)	A (0% ≤ substrate protein remaining % ≤ 80%)	A (0% ≤ substrate protein remaining % ≤ 80%)	A (0% ≤ substrate protein remaining % ≤ 80%)	A (0% ≤ substrate protein remaining % ≤ 80%)	A (0% ≤ substrate protein remaining % ≤ 80%)

The next lines start with results.

IC50 (NCI-H1975) [nM]	IC50 [1] [nM]	IC50 (TMD8) [nM]	IC50 [2] [nM]	IC50 [3] [nM]	Structure (SMILES)	IKZF2 substrate protein remaining % (IKZF2)	GSPT1 substrate protein remaining % (GSPT1)	IKZF 1 substrate protein remaining % (IKZF1)	IKZF3 substrate protein remaining % (IKZF3)	Weel substrate protein remaining % (WEE1)	CK1a substrate protein remaining % (CK1α)
50 to 100	5 to 10	100 to 500	10 to 50	1000 to 1500	O=C1CCC(N2Cc3cc(CN4CCC(c5cccs5)CC4)ccc3C2=O)C(=O)N1 (stereo not shown) [GT-04571, 3-(1-oxo-5-((4-(thiophen-2-yl)piperidin-1-yl)methyl)isoindolin-2-yl)piperidine-2,6-dione]	A (0% ≤ substrate protein remaining % ≤ 80%)	A (0% ≤ substrate protein remaining % ≤ 80%)	A (0% ≤ substrate protein remaining % ≤ 80%)	A (0% ≤ substrate protein remaining % ≤ 80%)	A (0% ≤ substrate protein remaining % ≤ 80%)	A (0% ≤ substrate protein remaining % ≤ 80%)
50 to 100	5 to 10	50 to 100	10 to 50	1000 to 1500	Cc1ccc(C2CCN(Cc3ccc4c(c3)CN(C3CCC(=O)NC3=O)C4=O)CC2)s1 (stereo not shown) [GT-04573, 3-(5-((4-(5-methylthiophen-2-yl)piperidin-1-yl)methyl)-1-oxoisoindolin-2-yl)piperidine-2,6-dione]	A (0% ≤ substrate protein remaining % ≤ 80%)	A (0% ≤ substrate protein remaining % ≤ 80%)	A (0% ≤ substrate protein remaining % ≤ 80%)	A (0% ≤ substrate protein remaining % ≤ 80%)	A (0% ≤ substrate protein remaining % ≤ 80%)	A (0% ≤ substrate protein remaining % ≤ 80%)
100 to 500	5 to 10	100 to 500	10 to 50	500 to 1000	O=C1CCC(N2Cc3cc(CN4CCC(c5ccsc5)CC4)ccc3C2=O)C(=O)N1 (stereo not shown) [GT-04586, 3-(1-oxo-5-((4-(thiophen-3-yl)piperidin-1-yl)methyl)isoindolin-2-yl)piperidine-2,6-dione]	A (0% ≤ substrate protein remaining % ≤ 80%)	A (0% ≤ substrate protein remaining % ≤ 80%)	B (80%< substrate protein remaining %≤ 100%)	B (80%< substrate protein remaining %≤ 100%)	B (80%< substrate protein remaining %≤ 100%)	B (80%< substrate protein remaining %≤ 100%)
